Columns and labels:
C. freundii = assay: Susceptibility testing, MIC by Etest; assay type: cell-based, Citrobacter freundii
Description: (§1) Susceptibility testing was performed by determining MIC values using the Etest® (AB bioMérieux; Solna, Sweden) on Mueller-Hinton agar plates at 37° C. and results were recorded according to US guidelines (CLSI), as updated in 2012 (2). The breakpoints for cefotaxime are susceptible (S)≤1 and resistant (R)≥4 μg/ml, and for ceftazidime S≤4 and R≥16 μg/ml.

E. coli = assay: ESBL NDP test using spiked blood cultures; assay type: biochemical, Escherichia coli; parameters: key: (+) and (−) referred to color change being, red to yellow or unchanged, respectively; (+) and (−) referred to color change being, red to yellow or unchanged, respectively
Description: (§2) Strains were isolated on Mueller-Hinton agar (Biorad, Marnes-la-Coquette, France) and incubated at 37° C. for 16 h to 24 h before performing the NDP rapid ESBL test as follows. One calibrated inoculated loop (10 μl) of the tested strain was resuspended in 150 μl of 20 mM Tris-HCl lysis buffer previously distributed in Microbead tubes (Ultraclean Microbial DNA isolation kit Bead Tubes, MO BIO Laboratories, Carlsbad, USA). Mechanical lysis of bacteria was performed by strong agitation of Microbead tubes using a vortex adapter (MO BIO Laboratories) for 30 min at room temperature. This bacterial suspension was centrifuged at 10,000×g at room temperature for 5 min. Thirty μl of the supernatant was mixed in a well of a 96-well tray with 100 μl of a 1 ml solution made of 3 mg of purified cefotaxime sodium salt (Sigma-Aldrich, Saint-Quentin-Fallavier, France) in a pH 7.8 phenol red solution. […]. The phenol red solution was made by taking 2 ml of a concentrated pH 8 phenol solution (made from a mixture of phenol red 0.5% in distilled water) to which 16.6 ml of distilled water was added. The pH value was then adjusted to a 7.8 value by adding drops of a 1 N NaOH solution. Mixture of the phenol red solution and the enzymatic suspension being tested was incubated at 37° C. for 30 min. Similarly, culture extracts were analyzed in wells containing cefotaxime and tazobactam (4 mg/ml). Other concentrations of tazobactam and other ß-lactamase inhibitors were tested giving less clear results (data not shown). […] This definition of test positivity will be applied throughout the study.
Rapid detection of ESBL producers was attempted from spiked blood cultures which positivity was assessed using the BactAlert blood culture system (bioMérieux). […] This inoculum was reached after 24-48 h incubation in this BactAlert system. Strains were inoculated into blood culture system in presence of 10 ml of sterile blood. The panel of strains used for spiking blood cultures included either non-ESBL producers (n=24) or ESBL producers (n=64) (Table 4). Spiked blood cultures were made of 1×10^3 CFU of each strain and incubated 24 to 48 h before a positivity of the blood culture was detected by the BactAlert system. Then, 15 ml of spiked blood culture were transferred in a sterile tube and centrifuged at 1,500×g for 3 min to pellet the red blood cells. The supernatant was recovered and centrifuged for 15 min at 4,000×g to pellet the bacteria. The bacterial pellet was then resuspended in 500 μl of distilled water, transferred in 1.5 ml tube and thoroughly vortexed for 15 sec to lyse the remnant red blood cells and wash the bacterial pellet. After 5 min of centrifugation at 10,000×g, the bacterial pellet was resuspended in 150 μl of 20 mM Tris-HCl lysis buffer and distributed in beadtubes. The ESBL NDP test was then applied to this pellet as described above. Experiments were systematically performed in triplicate.

E. aerogenes [1] = assay: ESBL NDP test using cultured strains; assay type: biochemical, Enterobacter aerogenes; parameters: key: (+) and (−) referred to color change being, red to yellow or unchanged, respectively; (+) and (−) referred to color change being, red to yellow or unchanged, respectively
Description: as §2

E. aerogenes [2] = assay: Susceptibility testing, MIC by Etest; assay type: cell-based, Enterobacter aerogenes
Description: as §1

M. morganii = assay: ESBL NDP test using cultured strains; assay type: biochemical, Morganella morganii; parameters: key: (+) and (−) referred to color change being, red to yellow or unchanged, respectively; (+) and (−) referred to color change being, red to yellow or unchanged, respectively
Description: as §2

[3] = E. aerogenes Wild-type, chromosome-encoded cephalosporinase, n=1

CO/N=C(\C(=O)N[C@@H]1C(=O)N2C(C(=O)O)=C(COC(C)=O)CS[C@H]12)c1csc(N)n1 [CTX, cefotaxime]
+: ESBL NDP Test from: Blood culture (E. coli; E. coli 09.11, TEM-52) | ESBL NDP Test from: Blood culture (E. coli; E. coli 09.123, TEM-133) | ESBL NDP Test from: Blood culture (E. coli; E. coli 09.124, TEM-52) | ESBL NDP Test from: Blood culture (E. coli; E. coli 09.129, SHV-12) | ESBL NDP Test from: Blood culture (E. coli; E. coli 09.173, SHV-12) | ESBL NDP Test from: Blood culture (E. coli; E. coli 09.187, SHV-2a) | ESBL NDP Test from: Blood culture (E. coli; E. coli 09.193, SHV-12) | ESBL NDP Test from: Blood culture (E. coli; E. coli 09.207, SHV-2a) | ESBL NDP Test from: Blood culture (E. coli; E. coli 09.225, TEM-52) | ESBL NDP Test from: Blood culture (E. coli; E. coli 09.40, TEM-52) | ESBL NDP Test from: Blood culture (E. coli; E. coli 09.41, SHV-12) | ESBL NDP Test from: Blood culture (E. coli; E. coli 09.66, TEM-52) | ESBL NDP Test from: Blood culture (E. coli; E. coli 09.73, TEM-52) | ESBL NDP Test from: Blood culture (E. coli; E. coli 09.79, SHV-12) | ESBL NDP Test from: Blood culture (E. coli; E. coli 09.92, TEM-52) | ESBL NDP Test from: Blood culture (E. coli; E. coli 10.104, CTX-M-1) | ESBL NDP Test from: Blood culture (E. coli; E. coli 10.11, CTX-M-14) | ESBL NDP Test from: Blood culture (E. coli; E. coli 10.121, CTX-M-2) | ESBL NDP Test from: Blood culture (E. coli; E. coli 10.124, CTX-M-14) | ESBL NDP Test from: Blood culture (E. coli; E. coli 10.130, CTX-M-3) | ESBL NDP Test from: Blood culture (E. coli; E. coli 10.13, CTX-M-14) | ESBL NDP Test from: Blood culture (E. coli; E. coli 10.132, CTX-M-2) | ESBL NDP Test from: Blood culture (E. coli; E. coli 10.16, CTX-M-15) | ESBL NDP Test from: Blood culture (E. coli; E. coli 10.178, CTX-M-27) | ESBL NDP Test from: Blood culture (E. coli; E. coli 10.198, CTX-M-27) | ESBL NDP Test from: Blood culture (E. coli; E. coli 10.204, CTX-M-27) | ESBL NDP Test from: Blood culture (E. coli; E. coli 10.207, CTX-M-27) | ESBL NDP Test from: Blood culture (E. coli; E. coli 10.23, CTX-M-2) | ESBL NDP Test from: Blood culture (E. coli; E. coli 10.32, CTX-M-14) | ESBL NDP Test from: Blood culture (E. coli; E. coli 10.33, CTX-M-15) | ESBL NDP Test from: Blood culture (E. coli; E. coli 10.36, CTX-M-1) | ESBL NDP Test from: Blood culture (E. coli; E. coli 10.38, CTX-M-1) | ESBL NDP Test from: Blood culture (E. coli; E. coli 10.43, CTX-M-15) | ESBL NDP Test from: Blood culture (E. coli; E. coli 10.46, CTX-M-14) | ESBL NDP Test from: Blood culture (E. coli; E. coli 10.49, CTX-M-15) | ESBL NDP Test from: Blood culture (E. coli; E. coli 10.53, CTX-M-9) | ESBL NDP Test from: Blood culture (E. coli; E. coli 10.64, CTX-M-32) | ESBL NDP Test from: Blood culture (E. coli; E. coli 10.73, CTX-M-27) | ESBL NDP Test from: Blood culture (E. coli; E. coli 10.74, CTX-M-15) | ESBL NDP Test from: Blood culture (E. coli; E. coli 10.95, CTX-M-1) | ESBL NDP Test from: Blood culture (E. coli; E. coli A7R5, SHV-3) | ESBL NDP Test from: Blood culture (E. coli; E. coli C5O52, CTX-M-28) | ESBL NDP Test from: Blood culture (E. coli; E. coli Ec13 SYD, CMY-2) | ESBL NDP Test from: Blood culture (E. coli; E. coli LOU, ACC-1)
0.5 to 8 µg/mL: MICs range (E. aerogenes [2]; E. aerogenes TEM-24, n=6)
0.094 µg/mL: MICs range (E. aerogenes [2]; [3])
0.12 µg/mL: MICs range (C. freundii; C. freundii Wild-type, chromosome-encoded cephalosporinase, n=1)
>16 µg/mL: MICs range (C. freundii; C. freundii CTX-M-15, n=3) | MICs range (C. freundii; C. freundii TEM-3, n=1)
−: ESBL NDP Test from: Blood culture (E. coli; E. coli (Belgium), ACC-1) | ESBL NDP Test from: Blood culture (E. coli; E. coli BG 1106 5698, Penicillinase) | ESBL NDP Test from: Blood culture (E. coli; E. coli BG 1106 6252, Wild-type) | ESBL NDP Test from: Blood culture (E. coli; E. coli BG 1106 6367, Wild-type) | ESBL NDP Test from: Blood culture (E. coli; E. coli BG 1106 7202, Penicillinase) | ESBL NDP Test from: Blood culture (E. coli; E. coli BG 1107 8873, Wild-type) | ESBL NDP Test from: Blood culture (E. coli; E. coli BG 1108 6157, Penicillinase) | ESBL NDP Test from: Blood culture (E. coli; E. coli GOU, DHA-1) | ESBL NDP Test from: Colonies (E. aerogenes [1]; E. aerogenes BN 1113 0225, Wild-type) | ESBL NDP Test from: Colonies (E. aerogenes [1]; E. aerogenes E2O15, TEM-121) | Test (color change) (E. aerogenes [1]; E. aerogenes TEM-24, n=6) | Test (color change) (E. aerogenes [1]; E. aerogenes TEM-121, n=1) | Test (color change) (E. aerogenes [1]; [3]) | ESBL NDP Test from: Colonies (M. morganii; M. morganii BG 1106 5902, Wild-type) | ESBL NDP Test from: Colonies (M. morganii; M. morganii BG 1117 0617, Wild-type) | Test (color change) (M. morganii; M. morganii Wild-type, chromosome-encoded cephalosporinase, n=2)
<0.06 µg/mL: MICs range (E. aerogenes [2]; E. aerogenes TEM-121, n=1)
